Experimental data taken from patent publication US20070087988A1, “Hematopoietic progenitor kinase 1 for modulation of an immune response” (New York University, priority 2005, published 2007).
Entries after “also recorded” stand apart in the source; their conditions may differ.

Test system: HPK1
Assay: HPK1 immune complex in vitro kinase (IVK) assay, endogenous HPK1 from treated Jurkat cells
Format: cell-based, human
Settings: Lck (JCaM1), ZAP-70 (p116), Lat (ANJ-3), SLP-76 (J14) deficient lines, 10 pM PGE2

CCCCC[C@H](O)/C=C/[C@H]1[C@H](O)CC(=O)[C@@H]1C/C=C\CCCC(=O)O [PGE2, prostaglandin E2]
HPK1 kinase activity upon PGE2 stimulation in signaling-mutant Jurkat lines: did not interfere with the ability of HPK1 to respond; also recorded: all Jurkat cell lines could activate HPK1 kinase activity
